Experimental data as given in article PMC9569420 (Communications Biology, 2022).
Values joined by “and” are separate entries in the source; they are usually repeats but may differ in a detail not shown here. Identical values can stand only once.

How the values were obtained:
[1] = molecular target: T1, CDK2/cyclin E2 (Homo sapiens, UniProt P24941); assay: HotSpot kinase assay; assay type: biochemical; details: read-out: % Enzyme Activity (relative to DMSO controls)
T1 construct: purchased Reaction Biology Corporation

[2] = molecular target: T2, MYO3A (Homo sapiens, UniProt Q8NEV4); assay: HotSpot kinase assay; assay type: biochemical; details: read-out: % Enzyme Activity (relative to DMSO controls)
T2 construct: purchased Reaction Biology Corporation

[3] = molecular target: T3, EPHA8 (Homo sapiens, UniProt P29322); assay: HotSpot kinase assay; assay type: biochemical; details: read-out: % Enzyme Activity (relative to DMSO controls)
T3 construct: purchased Reaction Biology Corporation

[4] = molecular target: T4, NEK4 (Homo sapiens, UniProt P51957); assay: HotSpot kinase assay; assay type: biochemical; details: read-out: % Enzyme Activity (relative to DMSO controls)
T4 construct: purchased Reaction Biology Corporation

[5] = molecular target: T5, LIMK2 (Homo sapiens, UniProt P53671); assay: HotSpot kinase assay; assay type: biochemical; details: read-out: % Enzyme Activity (relative to DMSO controls)
T5 construct: purchased Reaction Biology Corporation

[6] = molecular target: T6, Aurora B (Homo sapiens, UniProt Q96GD4); assay: HotSpot kinase assay; assay type: biochemical; details: read-out: % Enzyme Activity (relative to DMSO controls)
T6 construct: purchased Reaction Biology Corporation
T6 sequence (Q96GD4 whole entry): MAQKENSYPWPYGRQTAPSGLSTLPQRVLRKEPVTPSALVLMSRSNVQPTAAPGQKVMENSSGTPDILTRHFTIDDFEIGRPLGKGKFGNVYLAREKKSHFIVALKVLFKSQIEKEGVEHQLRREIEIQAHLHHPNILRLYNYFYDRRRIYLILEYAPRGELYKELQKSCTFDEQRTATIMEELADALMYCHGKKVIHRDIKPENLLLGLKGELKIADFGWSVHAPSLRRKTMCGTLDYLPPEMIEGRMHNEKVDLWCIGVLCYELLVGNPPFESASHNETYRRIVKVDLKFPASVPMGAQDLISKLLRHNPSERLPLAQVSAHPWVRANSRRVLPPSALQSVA

[7] = molecular target: T7, BLK (Homo sapiens, UniProt P51451); assay: HotSpot kinase assay; assay type: biochemical; details: read-out: % Enzyme Activity (relative to DMSO controls)
T7 construct: purchased Reaction Biology Corporation
T7 sequence (P51451 whole entry): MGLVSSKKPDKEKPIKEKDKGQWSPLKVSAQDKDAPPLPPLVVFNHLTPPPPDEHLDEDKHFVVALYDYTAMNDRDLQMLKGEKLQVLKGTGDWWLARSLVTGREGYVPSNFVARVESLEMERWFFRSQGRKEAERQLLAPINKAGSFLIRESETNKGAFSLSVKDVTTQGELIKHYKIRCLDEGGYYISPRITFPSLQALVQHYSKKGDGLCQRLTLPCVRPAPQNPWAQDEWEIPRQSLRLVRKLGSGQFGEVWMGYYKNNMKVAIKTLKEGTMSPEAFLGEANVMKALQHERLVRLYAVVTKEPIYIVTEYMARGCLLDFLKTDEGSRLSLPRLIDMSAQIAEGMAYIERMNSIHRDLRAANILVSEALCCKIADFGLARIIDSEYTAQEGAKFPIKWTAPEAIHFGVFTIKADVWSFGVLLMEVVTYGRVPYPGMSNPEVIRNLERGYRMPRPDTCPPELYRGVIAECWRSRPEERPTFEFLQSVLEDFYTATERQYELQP

[8] = tested on: VSV-S; assay type: cell-based, VSV pseudotyped with SARS-CoV-2 spike
[9] = molecular target: T8, ROS/ROS1 (Homo sapiens, UniProt P08922); assay: HotSpot kinase assay; assay type: biochemical; details: read-out: % Enzyme Activity (relative to DMSO controls)
T8 construct: purchased Reaction Biology Corporation

[10] = molecular target: T9, MYLK3 (Homo sapiens, UniProt Q32MK0); assay: HotSpot kinase assay; assay type: biochemical; details: read-out: % Enzyme Activity (relative to DMSO controls)
T9 construct: purchased Reaction Biology Corporation
T9 sequence (Q32MK0 whole entry): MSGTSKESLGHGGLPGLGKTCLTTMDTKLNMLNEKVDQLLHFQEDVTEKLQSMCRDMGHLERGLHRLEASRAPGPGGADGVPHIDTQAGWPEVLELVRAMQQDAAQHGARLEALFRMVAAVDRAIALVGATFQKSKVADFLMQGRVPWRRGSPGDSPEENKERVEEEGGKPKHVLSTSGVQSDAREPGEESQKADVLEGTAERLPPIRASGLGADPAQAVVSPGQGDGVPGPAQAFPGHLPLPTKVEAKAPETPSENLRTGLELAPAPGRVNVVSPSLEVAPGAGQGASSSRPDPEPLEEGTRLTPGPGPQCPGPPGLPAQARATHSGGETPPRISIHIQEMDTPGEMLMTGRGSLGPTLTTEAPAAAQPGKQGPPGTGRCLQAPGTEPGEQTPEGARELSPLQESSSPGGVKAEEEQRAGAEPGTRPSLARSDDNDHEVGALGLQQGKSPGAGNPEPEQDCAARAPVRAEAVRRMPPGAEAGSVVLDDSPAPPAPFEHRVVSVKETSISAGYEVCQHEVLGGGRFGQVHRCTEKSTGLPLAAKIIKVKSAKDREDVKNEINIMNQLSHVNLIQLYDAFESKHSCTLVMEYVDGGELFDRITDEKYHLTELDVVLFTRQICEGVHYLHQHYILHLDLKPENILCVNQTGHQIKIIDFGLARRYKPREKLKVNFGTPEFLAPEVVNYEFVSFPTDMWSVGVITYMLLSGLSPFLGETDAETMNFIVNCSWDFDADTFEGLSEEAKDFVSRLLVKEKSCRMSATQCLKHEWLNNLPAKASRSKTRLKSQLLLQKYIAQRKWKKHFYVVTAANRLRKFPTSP

[11] = molecular target: T10, Haspin (Homo sapiens, UniProt Q8TF76); assay: HotSpot kinase assay; assay type: biochemical; details: read-out: % Enzyme Activity (relative to DMSO controls)
T10 construct: purchased Reaction Biology Corporation

[12] = molecular target: T11, ARK5/NUAK1 (Homo sapiens, UniProt O60285); assay: HotSpot kinase assay; assay type: biochemical; details: read-out: % Enzyme Activity (relative to DMSO controls)
T11 construct: purchased Reaction Biology Corporation

[13] = molecular target: T12, NIM1 (Homo sapiens, UniProt Q8IY84); assay: HotSpot kinase assay; assay type: biochemical; details: read-out: % Enzyme Activity (relative to DMSO controls)
T12 construct: purchased Reaction Biology Corporation
T12 sequence (Q8IY84 whole entry): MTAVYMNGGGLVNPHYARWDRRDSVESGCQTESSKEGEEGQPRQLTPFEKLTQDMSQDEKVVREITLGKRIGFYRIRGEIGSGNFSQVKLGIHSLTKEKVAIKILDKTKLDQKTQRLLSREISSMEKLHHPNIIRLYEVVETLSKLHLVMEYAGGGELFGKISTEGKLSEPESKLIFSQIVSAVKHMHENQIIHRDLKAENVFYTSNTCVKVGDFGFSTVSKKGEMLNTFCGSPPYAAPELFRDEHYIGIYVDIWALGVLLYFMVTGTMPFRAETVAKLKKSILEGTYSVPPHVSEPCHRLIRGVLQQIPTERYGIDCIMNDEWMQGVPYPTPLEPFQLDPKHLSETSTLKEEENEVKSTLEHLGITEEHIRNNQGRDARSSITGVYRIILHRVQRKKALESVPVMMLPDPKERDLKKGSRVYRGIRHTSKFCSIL

[14] = molecular target: T13, MUSK (Homo sapiens, UniProt O15146); assay: HotSpot kinase assay; assay type: biochemical; details: read-out: % Enzyme Activity (relative to DMSO controls)
T13 construct: purchased Reaction Biology Corporation
T13 sequence (O15146 24-869): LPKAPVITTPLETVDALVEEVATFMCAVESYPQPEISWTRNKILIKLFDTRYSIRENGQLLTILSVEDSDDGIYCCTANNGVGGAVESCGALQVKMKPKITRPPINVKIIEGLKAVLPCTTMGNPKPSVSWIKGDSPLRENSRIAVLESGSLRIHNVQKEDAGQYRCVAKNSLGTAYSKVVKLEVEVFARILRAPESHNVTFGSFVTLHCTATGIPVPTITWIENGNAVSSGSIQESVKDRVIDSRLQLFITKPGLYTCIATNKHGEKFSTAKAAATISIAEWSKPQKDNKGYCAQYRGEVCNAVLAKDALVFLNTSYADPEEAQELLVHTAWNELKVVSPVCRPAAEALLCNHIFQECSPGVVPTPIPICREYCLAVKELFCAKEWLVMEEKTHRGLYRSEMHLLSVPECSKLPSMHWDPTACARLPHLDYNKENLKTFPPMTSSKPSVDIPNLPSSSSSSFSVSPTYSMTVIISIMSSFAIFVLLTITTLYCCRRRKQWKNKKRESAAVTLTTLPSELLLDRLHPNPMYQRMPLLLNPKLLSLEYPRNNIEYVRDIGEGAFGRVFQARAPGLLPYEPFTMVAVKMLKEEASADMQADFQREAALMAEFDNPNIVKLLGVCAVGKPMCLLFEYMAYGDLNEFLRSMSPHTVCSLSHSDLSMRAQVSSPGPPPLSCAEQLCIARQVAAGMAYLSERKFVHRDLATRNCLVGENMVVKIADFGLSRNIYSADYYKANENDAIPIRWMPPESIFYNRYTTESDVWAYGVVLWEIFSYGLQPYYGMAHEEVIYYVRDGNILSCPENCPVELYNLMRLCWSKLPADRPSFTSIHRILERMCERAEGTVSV

[15] = molecular target: T14, PKCtheta (Homo sapiens, UniProt Q04759); assay: HotSpot kinase assay; assay type: biochemical; details: read-out: % Enzyme Activity (relative to DMSO controls)
T14 construct: purchased Reaction Biology Corporation

[16] = molecular target: T15, PRKX (Homo sapiens, UniProt P51817); assay: HotSpot kinase assay; assay type: biochemical; details: read-out: % Enzyme Activity (relative to DMSO controls)
T15 construct: purchased Reaction Biology Corporation

[17] = molecular target: T16, CAMK1a (Homo sapiens, UniProt Q14012); assay: HotSpot kinase assay; assay type: biochemical; details: read-out: % Enzyme Activity (relative to DMSO controls)
T16 construct: purchased Reaction Biology Corporation

[18] = molecular target: T17, TLK2 (Homo sapiens, UniProt Q86UE8); assay: HotSpot kinase assay; assay type: biochemical; details: read-out: % Enzyme Activity (relative to DMSO controls)
T17 construct: purchased Reaction Biology Corporation

[19] = molecular target: T18, MST4 (Homo sapiens, UniProt Q9P289); assay: HotSpot kinase assay; assay type: biochemical; details: read-out: % Enzyme Activity (relative to DMSO controls)
T18 construct: purchased Reaction Biology Corporation

[20] = in vitro; details: dog, MDCK-MDR1
[21] = molecular target: T19, MAPKAPK2 (Homo sapiens, UniProt P49137); assay: HotSpot kinase assay; assay type: biochemical; details: read-out: % Enzyme Activity (relative to DMSO controls)
T19 construct: purchased Reaction Biology Corporation
T19 sequence (P49137 whole entry): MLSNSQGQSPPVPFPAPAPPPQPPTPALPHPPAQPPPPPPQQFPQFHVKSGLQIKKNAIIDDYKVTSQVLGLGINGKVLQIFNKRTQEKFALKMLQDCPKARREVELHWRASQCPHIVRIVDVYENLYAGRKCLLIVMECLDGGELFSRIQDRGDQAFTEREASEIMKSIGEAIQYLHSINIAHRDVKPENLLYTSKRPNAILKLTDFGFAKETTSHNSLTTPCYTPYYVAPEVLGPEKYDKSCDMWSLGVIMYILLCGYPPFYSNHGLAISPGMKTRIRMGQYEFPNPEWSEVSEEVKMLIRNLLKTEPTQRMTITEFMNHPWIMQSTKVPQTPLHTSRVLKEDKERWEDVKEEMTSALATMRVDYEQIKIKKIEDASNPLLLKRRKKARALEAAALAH

[22] = molecular target: T20, ULK2 (Homo sapiens, UniProt Q8IYT8); assay: HotSpot kinase assay; assay type: biochemical; details: read-out: % Enzyme Activity (relative to DMSO controls)
T20 construct: purchased Reaction Biology Corporation

[23] = molecular target: T21, WNK1 (Homo sapiens, UniProt Q9H4A3); assay: HotSpot kinase assay; assay type: biochemical; details: read-out: % Enzyme Activity (relative to DMSO controls)
T21 construct: purchased Reaction Biology Corporation

[24] = molecular target: T22, CHK2 (Homo sapiens, UniProt O96017); assay: HotSpot kinase assay; assay type: biochemical; details: read-out: % Enzyme Activity (relative to DMSO controls)
T22 construct: purchased Reaction Biology Corporation

[25] = molecular target: T23, PKCb1 (Homo sapiens, UniProt P05771); assay: biochemical; details: read-out: % Enzyme Activity (relative to DMSO controls)
T23 construct: purchased Reaction Biology Corporation

[26] = molecular target: T24, CDK1/cyclin B (Homo sapiens, UniProt P06493); assay: HotSpot kinase assay; assay type: biochemical; details: read-out: % Enzyme Activity (relative to DMSO controls)
T24 construct: purchased Reaction Biology Corporation
T24 sequence (P06493 whole entry): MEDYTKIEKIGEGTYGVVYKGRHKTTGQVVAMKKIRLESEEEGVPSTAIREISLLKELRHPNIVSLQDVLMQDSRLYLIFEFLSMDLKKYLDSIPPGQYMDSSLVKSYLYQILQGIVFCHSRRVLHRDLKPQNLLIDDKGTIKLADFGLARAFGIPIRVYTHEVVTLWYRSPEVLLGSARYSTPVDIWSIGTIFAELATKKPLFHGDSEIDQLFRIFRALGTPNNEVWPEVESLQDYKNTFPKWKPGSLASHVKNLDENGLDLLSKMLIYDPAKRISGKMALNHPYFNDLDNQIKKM
T24 sequence (P14635 whole entry partner): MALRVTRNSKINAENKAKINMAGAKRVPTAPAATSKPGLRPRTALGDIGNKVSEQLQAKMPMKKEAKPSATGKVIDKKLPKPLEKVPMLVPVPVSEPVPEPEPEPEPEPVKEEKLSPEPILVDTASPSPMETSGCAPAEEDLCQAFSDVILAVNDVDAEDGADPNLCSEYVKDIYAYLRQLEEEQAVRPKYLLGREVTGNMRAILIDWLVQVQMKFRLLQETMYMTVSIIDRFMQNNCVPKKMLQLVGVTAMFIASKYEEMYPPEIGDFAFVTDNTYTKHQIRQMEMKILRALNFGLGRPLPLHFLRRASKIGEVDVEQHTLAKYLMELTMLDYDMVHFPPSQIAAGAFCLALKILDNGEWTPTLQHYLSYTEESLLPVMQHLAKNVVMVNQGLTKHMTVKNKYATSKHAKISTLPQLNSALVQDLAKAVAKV

[27] = tested on: intracellular Ca2+ response to HSV-2(G); assay: calcium kinetic measurements (Fura-2), HaCat cells; assay type: cell-based, human; details: for mean calcium released: CIMSS without virus (Fig 4b source data)
Protocol: The cells were then transferred to SpectraMaxMF^e temperature-regulated chamber at 37 °C (Molecular Devices Ca) without washing; photometric data for intracellular Ca^2+ concentration [Ca^2+] were generated by exciting cells at 340 and 380 nm and measuring emission at 510 nm every minute for one hour using SoftMaxPro. 5.4 software (Molecular Devices). An intracellular calibration was performed with each experiment by determining the fluorescence ratio (340:380) in the presence of Ca-free 10 mM K2EGTA buffer (Rmin) and 10 mM CaEGTA buffer containing 10 µM ionomycin (Rmax) (C-3008, Calcium Calibration Buffer Kit #1, Invitrogen Molecular Probes).

[28] = molecular target: T25, CDK2/cyclin A1 (Homo sapiens, UniProt P24941); assay: HotSpot kinase assay; assay type: biochemical; details: read-out: % Enzyme Activity (relative to DMSO controls)
T25 construct: purchased Reaction Biology Corporation

[29] = molecular target: T26, TYK1/LTK (Homo sapiens, UniProt P29376); assay: HotSpot kinase assay; assay type: biochemical; details: read-out: % Enzyme Activity (relative to DMSO controls)
T26 construct: purchased Reaction Biology Corporation

[30] = molecular target: T27, PKCa (Homo sapiens, UniProt P17252); assay: HotSpot kinase assay; assay type: biochemical; details: read-out: % Enzyme Activity (relative to DMSO controls)
T27 construct: purchased Reaction Biology Corporation

[31] = molecular target: T28, p70S6K/RPS6KB1 (Homo sapiens, UniProt P23443); assay: HotSpot kinase assay; assay type: biochemical; details: read-out: % Enzyme Activity (relative to DMSO controls)
T28 construct: purchased Reaction Biology Corporation

[32] = molecular target: T29, DNA-PK (Homo sapiens, UniProt P78527); assay: HotSpot kinase assay; assay type: biochemical; details: read-out: % Enzyme Activity (relative to DMSO controls)
T29 construct: purchased Reaction Biology Corporation

[33] = molecular target: T30, SNRK (Homo sapiens, UniProt Q9NRH2); assay: HotSpot kinase assay; assay type: biochemical; details: read-out: % Enzyme Activity (relative to DMSO controls)
T30 construct: purchased Reaction Biology Corporation

CO[C@@H]1[C@H](N(C)C(=O)CCC(=O)NCc2cn(CCCS(=O)(=O)O)nn2)C[C@H]2O[C@]1(C)n1c3ccccc3c3c4c(c5c6ccccc6n2c5c31)C(=O)NC4 [CIMSS]
remaining activity at 10 µM [1]: 11.8% | remaining activity at 10 µM [2]: 6.46% | remaining activity at 10 µM [3]: 70.1% | remaining activity at 10 µM [4]: 6.24% | remaining activity at 10 µM [5]: 67.4% | remaining activity at 10 µM [6]: 2.85% | remaining activity at 10 µM [7]: 0.34% | VSV-S infection [8]: inhibited | remaining activity at 10 µM [9]: 4.57% | remaining activity at 10 µM [10]: 67.6% | remaining activity at 10 µM [11]: 49.5% | remaining activity at 10 µM [12]: 1.83% | remaining activity at 10 µM [13]: 46.6% | remaining activity at 10 µM [14]: 3.33% | remaining activity at 10 µM [15]: 7.08% | remaining activity at 10 µM [16]: 9.56% | remaining activity at 10 µM [17]: 28.7% | remaining activity at 10 µM [18]: 67% | remaining activity at 10 µM [19]: 1.35% | Papp at 1 h, 5 μM [20]: 0.1 ×10⁻⁶ cm/s | remaining activity at 10 µM [21]: 69.9% | remaining activity at 10 µM [22]: 13.6% | remaining activity at 10 µM [23]: 110% | remaining activity at 10 µM [24]: 25.4% | remaining activity at 10 µM [25]: 2.83% | remaining activity at 10 µM [26]: 13.6% | extended Ca2+ release ([27]; 10 µM, first hour pi): significant reduction | initial Ca2+ transient ([27]; 10 µM, first three minutes): did not block | mean calcium released ([27]; 3 minutes): 38.88 and 30.45 and 39.3074 and 44.7233 | mean calcium released ([27]; 1 hour): 90.67 and 95.94 and 99.48 and 102.73 | remaining activity at 10 µM [28]: 7.95% | remaining activity at 10 µM [29]: 7.18% | remaining activity at 10 µM [30]: 0.86% | remaining activity at 10 µM [31]: 5.46% | remaining activity at 10 µM [32]: 98.2% | remaining activity at 10 µM [33]: 72.5%
